The experiment concerns the target T1, GCase (Cerezyme) (Homo sapiens, UniProt P04062, R534H).
T1 sequence (P04062 40-536 R534H): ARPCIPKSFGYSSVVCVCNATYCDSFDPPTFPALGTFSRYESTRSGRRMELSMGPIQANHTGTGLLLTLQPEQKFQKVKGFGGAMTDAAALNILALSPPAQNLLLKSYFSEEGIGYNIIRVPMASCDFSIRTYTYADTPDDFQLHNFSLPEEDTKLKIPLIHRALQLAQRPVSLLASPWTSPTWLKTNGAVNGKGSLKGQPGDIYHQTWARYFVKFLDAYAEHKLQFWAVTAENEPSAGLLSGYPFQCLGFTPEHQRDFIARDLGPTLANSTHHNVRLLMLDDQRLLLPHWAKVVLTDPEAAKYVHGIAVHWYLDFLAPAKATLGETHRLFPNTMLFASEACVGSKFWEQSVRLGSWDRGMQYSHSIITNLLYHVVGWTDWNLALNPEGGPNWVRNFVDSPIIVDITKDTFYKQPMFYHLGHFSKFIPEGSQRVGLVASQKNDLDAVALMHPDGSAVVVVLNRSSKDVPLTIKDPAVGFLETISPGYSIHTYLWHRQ
In words: SPR, immobilized GCase on CM5 chip. Conditions: pH […] HEPES, […] EDTA, […] NaCl, […] Tween-20; no IFG; allosteric. In kind it is binding. Background: In SPR one partner is held on a chip, and binding of the other changes the refractive index at the surface.

pKd: −log10 of the molar value.

In general, pKd refers to the Kd on a negative log10 scale, so that one unit is a factor of ten. Read a high pKd as a small Kd. In the case of GT-02329, the pKd was below 4.05.
GT-02287 gave a pKd of 4.62 to 4.77.

Values taken from publication doi:10.1101/2024.11.15.623779v1 (biorxiv, 2024).
